Laboratory results as given in patent US8258114B2, “Modulation of glucose-6-phosphatase translocase expression” (Isis Pharmaceuticals, Inc., priority 2004, dated 2012).
Oligonucleotides are written 5' to 3', each unit as a sugar letter and its base; * is a phosphorothioate linkage, no mark a phosphodiester; rarer units and linkages stand in square brackets, end groups in braces. Plain capitals give the bases only. e = 2'-O-(2-methoxyethyl) (MOE); [5mC] = 5-methylcytosine; d = 2'-deoxy (DNA)

System: human glucose-6-phosphatase translocase mRNA
Assay: Antisense inhibition of human glucose-6-phosphatase translocase mRNA in HepG2 cells (Table 11)
Format: cell-based
Design: concentration or dose not given beside the values
Conditions: LIPOFECTIN, mRNA by real-time PCR
Description: The human hepatoblastoma cell line HepG2 was obtained from the American Type Culture Collection (Manassas, Va.). HepG2 cells were routinely cultured in Eagle's MEM supplemented with 10% fetal bovine serum, 1 mM non-essential amino acids, and 1 mM sodium pyruvate (Invitrogen Life Technologies, Carlsbad, Calif.). Cells were routinely passaged by trypsinization and dilution when they reached approximately 90% confluence. Multiwell culture plates are prepared for cell culture by coating with a 1:100 dilution of type 1 rat tail collagen (BD Biosciences, Bedford, Mass.) in phosphate-buffered saline. The collagen-containing plates were incubated at 37° C. for approximately 1 hour, after which the collagen was removed and the wells were washed twice with phosphate-buffered saline. Cells were seeded into 96-well plates (Falcon-Primaria #353872, BD Biosciences, Bedford, Mass.) at a density of approximately 8,000 cells/well for use in oligomeric compound transfection experiments.
When cells reached 65-75% confluency, they were treated with oligonucleotide. Oligonucleotide was mixed with LIPOFECTIN™ Invitrogen Life Technologies, Carlsbad, Calif.) in Opti-MEM™-1 reduced serum medium (Invitrogen Life Technologies, Carlsbad, Calif.) to achieve the desired concentration of oligonucleotide and a LIPOFECTIN™ concentration of 2.5 or 3 μg/mL per 100 nM oligonucleotide. This transfection mixture was incubated at room temperature for approximately 0.5 hours. For cells grown in 96-well plates, wells were washed once with 100 μL OPTI-MEM™-1 and then treated with 130 μL of the transfection mixture. Cells grown in 24-well plates or other standard tissue culture plates are treated similarly, using appropriate volumes of medium and oligonucleotide. Cells are treated and data are obtained in duplicate or triplicate. After approximately 4-7 hours of treatment at 37° C., the medium containing the transfection mixture was replaced with fresh culture medium. Cells were harvested 16-24 hours after oligonucleotide treatment.
Quantitation of glucose 6-phosphatase translocase mRNA levels was accomplished by real-time quantitative PCR using the ABI PRISM™ 7600, 7700, or 7900 Sequence Detection System (PE-Applied Biosystems, Foster City, Calif.) according to manufacturer's instructions.
Prior to quantitative PCR analysis, primer-probe sets specific to the target gene being measured were evaluated for their ability to be “multiplexed” with a GAPDH amplification reaction. After isolation the RNA is subjected to sequential reverse transcriptase (RT) reaction and real-time PCR, both of which are performed in the same well. RT and PCR reagents were obtained from Invitrogen Life Technologies (Carlsbad, Calif.). […] The RT reaction was carried out by incubation for 30 minutes at 48° C. Following a 10 minute incubation at 95° C. to activate the PLATINUM® Taq, 40 cycles of a two-step PCR protocol were carried out: 95° C. for 15 seconds (denaturation) followed by 60° C. for 1.5 minutes (annealing/extension).
Gene target quantities obtained by RT, real-time PCR were normalized using either the expression level of GAPDH, a gene whose expression is constant, or by quantifying total RNA using RiboGreen™ (Molecular Probes, Inc. Eugene, Oreg.). GAPDH expression was quantified by RT, real-time PCR, by being run simultaneously with the target, multiplexing, or separately. Total RNA was quantified using RiboGreen™ RNA quantification reagent (Molecular Probes, Inc. Eugene, Oreg.).
A series of oligomeric compounds was designed to target different regions of human glucose-6-phosphatase translocase, using published sequences cited in Table 1. All compounds in Table 4 are chimeric oligonucleotides (“gapmers”) 20 nucleotides in length, composed of a central “gap” region consisting of 10 2′-deoxynucleotides, which is flanked on both sides (5′ and 3′) by five-nucleotide “wings”. The wings are composed of 2′-O-(2-methoxyethyl) nucleotides, also known as 2′-MOE nucleotides. […]

Sequence | % Inhib
AGAGGAAGGAGACAACCACA (eA*eG*eA*eG*eG*dA*dA*dG*dG*dA*dG*dA*d[5mC]*dA*dA*e[5mC]*e[5mC]*eA*e[5mC]*eA; antisense) [ISIS 359521] | 32%
AGCAGGTTCATTGTGGATGA (eA*eG*e[5mC]*eA*eG*dG*dT*dT*d[5mC]*dA*dT*dT*dG*dT*dG*eG*eA*eT*eG*eA; antisense) [ISIS 359522] | 91%
AGCCAGGTTCATGCTGGTTG (eA*eG*e[5mC]*e[5mC]*eA*dG*dG*dT*dT*d[5mC]*dA*dT*dG*d[5mC]*dT*eG*eG*eT*eT*eG; antisense) [ISIS 359513] | 62%
ATGGCCCACCAAGTGCCAAA (eA*eT*eG*eG*e[5mC]*d[5mC]*d[5mC]*dA*d[5mC]*d[5mC]*dA*dA*dG*dT*dG*e[5mC]*e[5mC]*eA*eA*eA; antisense) [ISIS 359510] | 38%
CAAATACAGCTCCCAATACC (e[5mC]*eA*eA*eA*eT*dA*d[5mC]*dA*dG*d[5mC]*dT*d[5mC]*d[5mC]*d[5mC]*dA*eA*eT*eA*e[5mC]*e[5mC]; antisense) [ISIS 359538] | 29%
CAAGGAGCCCTTCTTGCCCT (e[5mC]*eA*eA*eG*eG*dA*dG*d[5mC]*d[5mC]*d[5mC]*dT*dT*d[5mC]*dT*dT*eG*e[5mC]*e[5mC]*e[5mC]*eT; antisense) [ISIS 359524] | 56%
CAGGCCAACCAGGAGCAGCC (e[5mC]*eA*eG*eG*e[5mC]*d[5mC]*dA*dA*d[5mC]*d[5mC]*dA*dG*dG*dA*dG*e[5mC]*eA*eG*e[5mC]*e[5mC]; antisense) [ISIS 359508] | 68%
CATGCTGGTTGACAGGATGG (e[5mC]*eA*eT*eG*e[5mC]*dT*dG*dG*dT*dT*dG*dA*d[5mC]*dA*dG*eG*eA*eT*eG*eG; antisense) [ISIS 359512] | 43%
CCAACCAGGAGCAGCCCAGA (e[5mC]*e[5mC]*eA*eA*e[5mC]*d[5mC]*dA*dG*dG*dA*dG*d[5mC]*dA*dG*d[5mC]*e[5mC]*e[5mC]*eA*eG*eA; antisense) [ISIS 359507] | 49%
CCAGCCCTCCAGCCAGGTTC (e[5mC]*e[5mC]*eA*eG*e[5mC]*d[5mC]*d[5mC]*dT*d[5mC]*d[5mC]*dA*dG*d[5mC]*d[5mC]*dA*eG*eG*eT*eT*e[5mC]; antisense) [ISIS 359516] | 69%
CCAGCGTGCTGCGCCAGCTG (e[5mC]*e[5mC]*eA*eG*e[5mC]*dG*dT*dG*d[5mC]*dT*dG*d[5mC]*dG*d[5mC]*d[5mC]*eA*eG*e[5mC]*eT*eG; antisense) [ISIS 359518] | 47%
CCAGGAGCAGCCCAGAAGAG (e[5mC]*e[5mC]*eA*eG*eG*dA*dG*d[5mC]*dA*dG*d[5mC]*d[5mC]*d[5mC]*dA*dG*eA*eA*eG*eA*eG; antisense) [ISIS 359506] | 58%
CCATACGAGGAGAAACCAAA (e[5mC]*e[5mC]*eA*eT*eA*d[5mC]*dG*dA*dG*dG*dA*dG*dA*dA*dA*e[5mC]*e[5mC]*eA*eA*eA; antisense) [ISIS 359542] | 46%
CCATCTTGGTGCGGATGTTT (e[5mC]*e[5mC]*eA*eT*e[5mC]*dT*dT*dG*dG*dT*dG*d[5mC]*dG*dG*dA*eT*eG*eT*eT*eT; antisense) [ISIS 359547] | 91%
CCCTCCAGCCAGGTTCATGC (e[5mC]*e[5mC]*e[5mC]*eT*e[5mC]*d[5mC]*dA*dG*d[5mC]*d[5mC]*dA*dG*dG*dT*dT*e[5mC]*eA*eT*eG*e[5mC]; antisense) [ISIS 359515] | 62%
CGAGGAGAAACCAAATACAG (e[5mC]*eG*eA*eG*eG*dA*dG*dA*dA*dA*d[5mC]*d[5mC]*dA*dA*dA*eT*eA*e[5mC]*eA*eG; antisense) [ISIS 359541] | 41%

Sequence | % Inhib
CTGGTCACTGTTACCCGGAA (e[5mC]*eT*eG*eG*eT*d[5mC]*dA*d[5mC]*dT*dG*dT*dT*dA*d[5mC]*d[5mC]*e[5mC]*eG*eG*eA*eA; antisense) [ISIS 359533] | 69%
CTGGTTGACAGGATGGCCCA (e[5mC]*eT*eG*eG*eT*dT*dG*dA*d[5mC]*dA*dG*dG*dA*dT*dG*eG*e[5mC]*e[5mC]*e[5mC]*eA; antisense) [ISIS 359511] | 55%
GAAACCAAATACAGCTCCCA (eG*eA*eA*eA*e[5mC]*d[5mC]*dA*dA*dA*dT*dA*d[5mC]*dA*dG*d[5mC]*eT*e[5mC]*e[5mC]*e[5mC]*eA; antisense) [ISIS 359539] | 38%
GAACTGGCCCCAGTCAGTAC (eG*eA*eA*e[5mC]*eT*dG*dG*d[5mC]*d[5mC]*d[5mC]*d[5mC]*dA*dG*dT*d[5mC]*eA*eG*eT*eA*e[5mC]; antisense) [ISIS 359528] | 45%
GAAGGAGACAACCACACACA (eG*eA*eA*eG*eG*dA*dG*dA*d[5mC]*dA*dA*d[5mC]*d[5mC]*dA*d[5mC]*eA*e[5mC]*eA*e[5mC]*eA; antisense) [ISIS 359520] | 42%
GAGAAACCAAATACAGCTCC (eG*eA*eG*eA*eA*dA*d[5mC]*d[5mC]*dA*dA*dA*dT*dA*d[5mC]*dA*eG*e[5mC]*eT*e[5mC]*e[5mC]; antisense) [ISIS 359540] | 92%
GCCACCCAGAAGGCTGTGCT (eG*e[5mC]*e[5mC]*eA*e[5mC]*d[5mC]*d[5mC]*dA*dG*dA*dA*dG*dG*d[5mC]*dT*eG*eT*eG*e[5mC]*eT; antisense) [ISIS 359545] | 65%
GTCACTGGTCACTGTTACCC (eG*eT*e[5mC]*eA*e[5mC]*dT*dG*dG*dT*d[5mC]*dA*d[5mC]*dT*dG*dT*eT*eA*e[5mC]*e[5mC]*e[5mC]; antisense) [ISIS 359534] | 75%
GTGCTCTCCTCCTTCAAGGA (eG*eT*eG*e[5mC]*eT*d[5mC]*dT*d[5mC]*d[5mC]*dT*d[5mC]*d[5mC]*dT*dT*d[5mC]*eA*eA*eG*eG*eA; antisense) [ISIS 359527] | 45%
GTGCTGCGCCAGCTGTAGCT (eG*eT*eG*e[5mC]*eT*dG*d[5mC]*dG*d[5mC]*d[5mC]*dA*dG*d[5mC]*dT*dG*eT*eA*eG*e[5mC]*eT; antisense) [ISIS 359517] | 25%
TACCAGGATCCAGAGCTTGG (eT*eA*e[5mC]*e[5mC]*eA*dG*dG*dA*dT*d[5mC]*d[5mC]*dA*dG*dA*dG*e[5mC]*eT*eT*eG*eG; antisense) [ISIS 359535] | 58%
TCACTGTTACCCGGAAGAGG (eT*e[5mC]*eA*e[5mC]*eT*dG*dT*dT*dA*d[5mC]*d[5mC]*d[5mC]*dG*dG*dA*eA*eG*eA*eG*eG; antisense) [ISIS 359532] | 48%
TCCAGCCAGGTTCATGCTGG (eT*e[5mC]*e[5mC]*eA*eG*d[5mC]*d[5mC]*dA*dG*dG*dT*dT*d[5mC]*dA*dT*eG*e[5mC]*eT*eG*eG; antisense) [ISIS 359514] | 37%
TCCCAATACCAGGATCCAGA (eT*e[5mC]*e[5mC]*e[5mC]*eA*dA*dT*dA*d[5mC]*d[5mC]*dA*dG*dG*dA*dT*e[5mC]*e[5mC]*eA*eG*eA; antisense) [ISIS 359536] | 55%
TCCTTCAAGGAGCCCTTCTT (eT*e[5mC]*e[5mC]*eT*eT*d[5mC]*dA*dA*dG*dG*dA*dG*d[5mC]*d[5mC]*d[5mC]*eT*eT*e[5mC]*eT*eT; antisense) [ISIS 359525] | 56%
TCCTTTCTCCTGGATAAGGA (eT*e[5mC]*e[5mC]*eT*eT*dT*d[5mC]*dT*d[5mC]*d[5mC]*dT*dG*dG*dA*dT*eA*eA*eG*eG*eA; antisense) [ISIS 359530] | 59%
